From patent USRE48461E1, “Modulation of androgen receptor expression” (Ionis Pharmaceuticals, Inc., priority 2012, dated 2021)

How the values were obtained:
Assay type in all cases: cell-based, human
AR mRNA = test: AR RNA expression in C4-2 cells (complete, CSS+DHT medium); conditions: 48 hrs; for Percent expression of AR: C4-2 cells, CSS + DHT medium
Method: (§1) Cells were plated at 1,000 cells per well. […] After an incubation period of 48 hrs, RNA levels of AR, PSA and TMPRSS2 were measured.
(§2) Cells were plated at 2,000 cells per well and cultured in CSS media with 1 nM DHT. […] After an incubation period of 48 hrs, RNA levels of AR, PSA and TMPRSS2 were measured.

TMPRSS2 mRNA = test: TMPRSS2 expression in C4-2 cells; conditions: 48 hrs; for Percent inhibition of TMPRSS2 expression: C4-2 cells, CSS + DHT medium
Method: as §1, §2

PSA mRNA [1] = test: PSA expression in C4-2B cells (Example 30); conditions: 48 hrs
Method: Cells were plated at 1,000 cells per well. […] ISIS 549148 was included as a negative control. […] After an incubation period of 48 hrs, RNA levels of AR, PSA and TMPRSS2 were measured.
Cells were plated at 2,000 cells per well and cultured in CSS media with 1 nM DHT. […] ISIS 549148 was included as a negative control. […] After an incubation period of 48 hrs, RNA levels of AR, PSA and TMPRSS2 were measured. In the absence of DHT, AR expression in C4-2 cells was 188%, PSA expression was 43% and TMPRSS2 expression was 27% compared to the untreated control.

C4-2B cells = test: C4-2B cell proliferation (complete or CSS+DHT medium; Example 30); conditions: 5 days; for Proliferation (% untreated control): C4-2B cells
Method: (§3) After a treatment period of 5 days in complete medium or CSS+1 nM DHT medium, the proliferative capacity of the cancer cells was measured with using CellTiter 96® AQueous One or CellTiter-Glo® Solution Cell Proliferation kit (Promega), following the manufacturer's instructions.

full length AR mRNA = test: Full-length AR RNA in VCaP cells (complete, CSS+DHT medium); conditions: RNAiMax, 48 hrs
Method: (§4) Cells were plated at 10,000 cells per well. […] After an incubation period of 48 hrs, RNA levels of full length AR, the V7 variant, PSA and TMPRSS2 were measured.
(§5) After an incubation period of 48 hrs, RNA levels of full length AR, the V7 variant, PSA and TMPRSS2 were measured. The data is presented in Tables 108 expressed as percent expression of gene levels compared to the untreated control.
(§6) Cells were plated at 15,000 cells per well and cultured in CSS media for 16 hours. […] After 4 hrs, 1 nM DHT was added. […] After an incubation period of 48 hrs, RNA levels of AR, PSA and TMPRSS2 were measured.

PSA mRNA [2] = test: PSA expression in VCaP cells; conditions: RNAiMax, 48 hrs
Method: as §4, §5, §6

VCaP cells = test: VCaP cell proliferation; conditions: 5 days; for Proliferation (% untreated control): VCaP cells
Method: as §3, with “instructions. […] Treatment with ISIS oligonucleotides in CSS+DHT medium reduced the proliferative capacity to a greater extent than treatment with MVD-3100. The proliferative capacity of cells cultured in CSS medium without DHT is 12% of untreated control levels.” for “instructions.”

22RV1 cells = test: 22RV1 cell proliferation (Example 32); conditions: 5 days; for Proliferation (% untreated control): 22RV1 cells, complete medium
Method: After a treatment period of 5 days in complete medium, the proliferative capacity of the cancer cells was measured with using CellTiter 96® AQueous One or CellTiter-Glo® Solution Cell Proliferation kit (Promega), following the manufacturer's instructions. […] Treatment with ISIS oligonucleotides in CSS+DHT medium reduced the proliferative capacity to a greater extent than treatment with MVD-3100. The proliferative capacity of cells cultured in CSS medium without DHT is 12% of untreated control levels.

[3] = complete medium or CSS+1 nM DHT

Sequence: TGATTTAATGGTTGCA [ISIS 569236] (cEt/MOE gapmer chemistry, further chemistry not given here) [targets intron 1]
- Percent expression of AR (AR mRNA; 0.04 μM): 89%
- Percent expression of AR (AR mRNA; 0.2 μM): 82%
- Percent expression of AR (AR mRNA; 1 μM): 52%
- Percent expression of AR (AR mRNA; 5.0 μM): 23%
- Percent expression of AR in C4-2 cells cultured in complete medium (AR mRNA; 0.04 μM): 72%
- Percent expression of AR in C4-2 cells cultured in complete medium (AR mRNA; 0.2 μM): 27%
- Percent expression of AR in C4-2 cells cultured in complete medium (AR mRNA; 1 μM): 11%
- Percent expression of AR in C4-2 cells cultured in complete medium (AR mRNA; 5.0 μM): 9%
- Percent inhibition of TMPRSS2 expression (TMPRSS2 mRNA; 0.04 μM): 0%
- Percent inhibition of TMPRSS2 expression (TMPRSS2 mRNA; 0.2 μM): 11%
- Percent inhibition of TMPRSS2 expression (TMPRSS2 mRNA; 1 μM): 61%
- Percent inhibition of TMPRSS2 expression (TMPRSS2 mRNA; 5.0 μM): 67%
- Percent inhibition of TMPRSS2 expression in C4-2 cells cultured in complete medium (TMPRSS2 mRNA; 0.04 μM): 17%
- Percent inhibition of TMPRSS2 expression in C4-2 cells cultured in complete medium (TMPRSS2 mRNA; 0.2 μM): 54%
- Percent inhibition of TMPRSS2 expression in C4-2 cells cultured in complete medium (TMPRSS2 mRNA; 1 μM): 67%
- Percent inhibition of TMPRSS2 expression in C4-2 cells cultured in complete medium (TMPRSS2 mRNA; 5.0 μM): 67%
- Percent inhibition of PSA expression (PSA mRNA [1]; CSS + DHT medium, 0.04 μM): 0%
- Percent inhibition of PSA expression (PSA mRNA [1]; CSS + DHT medium, 0.2 μM): 5%
- Percent inhibition of PSA expression (PSA mRNA [1]; CSS + DHT medium, 1 μM): 33%
- Percent inhibition of PSA expression (PSA mRNA [1]; CSS + DHT medium, 5.0 μM): 46%
- Percent inhibition of PSA expression (PSA mRNA [1]; complete medium, 0.04 μM): 30%
- Percent inhibition of PSA expression (PSA mRNA [1]; complete medium, 0.2 μM): 72%
- Percent inhibition of PSA expression (PSA mRNA [1]; complete medium, 1 μM): 81%
- Percent inhibition of PSA expression (PSA mRNA [1]; complete medium, 5.0 μM): 89%
- Proliferation (% untreated control) (C4-2B cells; CSS + DHT medium, 0.04 μM): 109 % untreated control
- Proliferation (% untreated control) (C4-2B cells; CSS + DHT medium, 0.2 μM): 109 % untreated control
- Proliferation (% untreated control) (C4-2B cells; CSS + DHT medium, 1 μM): 67 % untreated control
- Proliferation (% untreated control) (C4-2B cells; CSS + DHT medium, 5.0 μM): 39 % untreated control
- Proliferation (% untreated control) (C4-2B cells; complete medium, 0.04 μM): 98 % untreated control
- Proliferation (% untreated control) (C4-2B cells; complete medium, 0.2 μM): 64 % untreated control
- Proliferation (% untreated control) (C4-2B cells; complete medium, 1 μM): 55 % untreated control
- Proliferation (% untreated control) (C4-2B cells; complete medium, 5.0 μM): 48 % untreated control
- proliferation of C4-2B cells (C4-2B cells; [3]): reduced proliferation of the cells in a dose dependent compared to the control
- Percent inhibition of full-length AR (full length AR mRNA; CSS medium, 1.34 nM): 23%
- Percent inhibition of full-length AR (full length AR mRNA; CSS medium, 4.0 nM): 21%
- Percent inhibition of full-length AR (full length AR mRNA; CSS medium, 13.4 nM): 38%
- Percent inhibition of full-length AR (full length AR mRNA; CSS medium, 40 nM): 35%
- Percent inhibition of full-length AR (full length AR mRNA; complete medium, 1.34 nM): 0%
- Percent inhibition of full-length AR (full length AR mRNA; complete medium, 4.0 nM): 41%
- Percent inhibition of full-length AR (full length AR mRNA; complete medium, 13.4 nM): 49%
- Percent inhibition of full-length AR (full length AR mRNA; complete medium, 40 nM): 74%
- Percent inhibition of PSA expression (PSA mRNA [2]; CSS + DHT medium, 1.34 nM): 8%
- Percent inhibition of PSA expression (PSA mRNA [2]; CSS + DHT medium, 4.0 nM): 25%
- Percent inhibition of PSA expression (PSA mRNA [2]; CSS + DHT medium, 13.4 nM): 62%
- Percent inhibition of PSA expression (PSA mRNA [2]; CSS + DHT medium, 40 nM): 74%
- Percent inhibition of PSA expression (PSA mRNA [2]; complete medium, 1.34 nM): 7%
- Percent inhibition of PSA expression (PSA mRNA [2]; complete medium, 4.0 nM): 19%
- Percent inhibition of PSA expression (PSA mRNA [2]; complete medium, 13.4 nM): 40%
- Percent inhibition of PSA expression (PSA mRNA [2]; complete medium, 40 nM): 52%
- Proliferation (% untreated control) (VCaP cells; CSS + DHT medium, 1.34 nM): 83 % untreated control
- Proliferation (% untreated control) (VCaP cells; CSS + DHT medium, 4.0 nM): 68 % untreated control
- Proliferation (% untreated control) (VCaP cells; CSS + DHT medium, 13.4 nM): 61 % untreated control
- Proliferation (% untreated control) (VCaP cells; CSS + DHT medium, 40 nM): 45 % untreated control
- Proliferation (% untreated control) (VCaP cells; complete medium, 1.34 nM): 98 % untreated control
- Proliferation (% untreated control) (VCaP cells; complete medium, 4.0 nM): 76 % untreated control
- Proliferation (% untreated control) (VCaP cells; complete medium, 13.4 nM): 68 % untreated control
- Proliferation (% untreated control) (VCaP cells; complete medium, 40 nM): 59 % untreated control
- proliferation of VCaP cells (VCaP cells; [3]): reduced proliferation of the cells in a dose dependent compared to the control
- Proliferation (% untreated control) (22RV1 cells; 1.34 nM): 92 % untreated control
- Proliferation (% untreated control) (22RV1 cells; 4.0 nM): 53 % untreated control
- Proliferation (% untreated control) (22RV1 cells; 13.4 nM): 20 % untreated control
- Proliferation (% untreated control) (22RV1 cells; 40 nM): 7 % untreated control
- proliferation of 22RV1 cells (22RV1 cells): reduced proliferation of the cells in a dose dependent compared to the control
